Test results: patent publication US20180228826A1, “FIXED-DOSE COMBINATIONS OF ANTIVIRAL COMPOUNDS” (priority 2015, published 2018)
Read-outs that look alike come from different tables or passages of the source.

Legend:
log D of Compound III = assay type: physicochemical; details: pH=7
Method: (§1) Even in its amorphous state, the apparent solubility of neat amorphous Compound […] in simulated fasted-state intestinal fluid is 50 μg/mL after two hours of equilibration. In order to enable absorption of Compound III, solid dispersion formulations of Compound III were formulated at a drug loading less than or equal to 40% in combination with absorption-enhancing polymers and surfactants as described in U.S. Provisional Patent Application No. 61/936,019, filed Feb. 5, 2014; PCT International Patent Application Nos. PCT/US2015/014195 and PCT/US2015/014201, filed Feb. 3, 2015.

[1] = human clinical trial, pharmacokinetics of Tablet Formulation 6 and Tablet Formulation 7, fasted and fed; details: in vivo, GM; for AUC(0-t): read-out: AUC0-24 hr
[2] = solubility in simulated fasted-state intestinal fluid; assay type: physicochemical; details: fassif
Method: as §1

[3] = oral, administered as Tablet Formulation 6, single dose of two tablets, Fasted
[4] = oral, administered as Tablet Formulation 6, single dose of two tablets, Fed (High-Fat Meal)
[5] = oral, administered as Tablet Formulation 7, single dose of two tablets, Fasted
[6] = oral, administered as Tablet Formulation 7, single dose of two tablets, Fed (High-Fat Meal)
[7] = administered as Tablet Formulation 6, single dose of two tablets, Fasted
[8] = administered as Tablet Formulation 6, single dose of two tablets, Fed (High-Fat Meal)
[9] = administered as Tablet Formulation 7, single dose of two tablets, Fasted
[10] = administered as Tablet Formulation 7, single dose of two tablets, Fed (High-Fat Meal)

| Structure (SMILES) | AUC(0-inf) [1, 3] | Cmax [1, 3] | AUC(0-t) [1, 3] | AUC(0-inf) [1, 4] | Cmax [1, 4] | AUC(0-t) [1, 4] | AUC(0-inf) [1, 5] | Cmax [1, 5] | AUC(0-t) [1, 5] | AUC(0-inf) [1, 6] | Cmax [1, 6] | AUC(0-t) [1, 6] | other results |
| --- | --- | --- | --- | --- | --- | --- | --- | --- | --- | --- | --- | --- | --- |
| C=C[C@@H]1C[C@]1(NC(=O)[C@@H]1C[C@@H]2CN1C(=O)[C@H](C(C)(C)C)NC(=O)O[C@@H]1C[C@H]1CCCCCc1nc3ccc(OC)cc3nc1O2)C(=O)NS(=O)(=O)C1CC1 [Compound III, (1aR,5S,8S,10R,22aR)—N-[(1R,2S)-1-[(cyclopropylsulfonamido)carbonyl]-2-ethenylcyclopropyl]-14-methoxy-5-(2-methylpropan-2-yl)-3,6-dioxo-1,1a,3,4,5,6,9,10,18,19,20,21,22,22a-tetradecahydro-8H-7,10-methanocyclopropa[18,19][1,10,3,6]dioxadiazacyclononadecino[11,12-b]quinoxaline-8-carboxamide hydrate] | 0.508 µM·h | 25.6 nM | 0.218 µM·h | 0.628 µM·h | 44.3 nM | 0.33 µM·h | 0.598 µM·h | 31.2 nM | 0.285 µM·h | 0.733 µM·h | 61.2 nM | 0.38 µM·h | logD (log D of Compound III): ~3; solubility [2]: < 7 µg/mL |
| CC(C)OC(=O)[C@@H](C)NP(=O)(OC[C@H]1O[C@@H](n2ccc(=O)[nH]c2=O)[C@](C)(Cl)[C@@H]1O)Oc1ccccc1 (stereo partly drawn) [Compound I, (2R)-isopropyl 2-(((((2R,3R,4R,5R)-4-chloro-5-(2,4-dioxo-3,4-dihydropyrimidin-1(2H)-yl)-3-hydroxy-4-methyltetrahydrofuran-2-yl)methoxy)(phenoxy)phosphoryl)amino)propanoate] |  |  |  |  |  |  |  |  |  |  |  |  | AUC(0-inf) [1, 7]: 2.73 µM·h; Cmax [1, 7]: 900 nM; AUC(0-t) [1, 7]: 2.63 µM·h; AUC(0-inf) [1, 8]: 3.91 µM·h; Cmax [1, 8]: 1420 nM; AUC(0-t) [1, 8]: 3.85 µM·h; AUC(0-inf) [1, 9]: 3.01 µM·h; Cmax [1, 9]: 897 nM; AUC(0-t) [1, 9]: 2.91 µM·h; AUC(0-inf) [1, 10]: 4.08 µM·h; Cmax [1, 10]: 1740 nM; AUC(0-t) [1, 10]: 4.36 µM·h; solubility at 2 h ([2]; thermodynamic from solid, after two hours of equilibration, read-out: apparent solubility of neat amorphous compound): 50 µg/mL |
| COC(=O)N[C@H](C(=O)N1CCC[C@H]1c1ncc(-c2cc(F)c3c(c2)O[C@@H](c2cnc(C4CC4)s2)n2c-3cc3cc(-c4cnc([C@@H]5CCCN5C(=O)[C@@H](NC(=O)OC)C(C)C)[nH]4)ccc32)[nH]1)C(C)C [Compound II, dimethyl ((2S,2′S)-((2S,2′S)-2,2′-(5,5′-((S)-6-(2-cyclopropylthiazol-5-yl)-1-fluoro-6H-benzo[5,6][1,3]oxazino[3,4-a]indole-3,10-diyl)bis(1H-imidazole-5,2-diyl))bis(pyrrolidine-2,1-diyl))bis(3-methyl-1-oxobutane-2,1-diyl))dicarbamate] | 0.942 µM·h | 57 nM | 0.572 µM·h | 1.11 µM·h | 68.1 nM | 0.658 µM·h | 1.31 µM·h | 77.2 nM | 0.783 µM·h | 1.2 µM·h | 78.7 nM | 0.716 µM·h |  |
